The text below walks through data of paper PMC8512853, “Synthesis, Bioactivity, Pharmacokinetic and Biomimetic Properties of Multi-Substituted Coumarin Derivatives” (Molecules, 2021).

SMILES strings stand for the structures.

One data set addresses T1, soybean LOX (Glycine max, UniProt P08170).
T1 construct: purchased Sigma-Aldrich and Fluka
T1 sequence (P08170 1-839): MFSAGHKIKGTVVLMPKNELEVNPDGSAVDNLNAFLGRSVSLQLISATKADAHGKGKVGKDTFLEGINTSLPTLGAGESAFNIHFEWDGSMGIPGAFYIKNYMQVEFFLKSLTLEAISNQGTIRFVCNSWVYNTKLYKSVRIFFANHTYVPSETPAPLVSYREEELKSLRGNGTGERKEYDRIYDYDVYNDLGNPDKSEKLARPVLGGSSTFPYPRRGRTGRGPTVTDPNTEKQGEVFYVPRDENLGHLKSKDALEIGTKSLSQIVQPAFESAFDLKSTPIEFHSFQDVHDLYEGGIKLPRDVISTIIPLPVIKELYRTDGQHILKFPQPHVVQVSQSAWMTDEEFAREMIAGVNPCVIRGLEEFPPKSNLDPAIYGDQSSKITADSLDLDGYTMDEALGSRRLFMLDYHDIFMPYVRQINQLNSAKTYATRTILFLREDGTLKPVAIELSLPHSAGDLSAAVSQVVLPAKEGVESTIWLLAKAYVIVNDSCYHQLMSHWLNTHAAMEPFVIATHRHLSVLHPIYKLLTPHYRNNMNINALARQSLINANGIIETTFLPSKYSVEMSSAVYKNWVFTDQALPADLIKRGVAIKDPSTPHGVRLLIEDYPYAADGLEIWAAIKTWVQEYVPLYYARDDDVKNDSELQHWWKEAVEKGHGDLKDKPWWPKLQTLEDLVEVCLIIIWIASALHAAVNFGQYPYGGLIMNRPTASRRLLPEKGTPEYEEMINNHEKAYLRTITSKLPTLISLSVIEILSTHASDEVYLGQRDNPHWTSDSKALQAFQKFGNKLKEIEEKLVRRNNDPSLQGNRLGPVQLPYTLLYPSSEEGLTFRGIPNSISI
The experiment in a line: Inhibition of soybean LOX. It counts as biochemical. Particulars: for inhibition at 100 µM: read-out: Soybean LOX % inhibition (100 μΜ). The procedure:
Soybean LOX is a plant enzyme which has been used widely as a prototype for studying the functional and structural properties of the homologous family of lipoxygenases, presenting satisfactory homology with the human 5-LOX [14]. Linoleic acid (LA) is a standard substrate for plant LOXs. In this protocol, all new molecules were tested as inhibitors of soybean LOX as an indication of their anti-inflammatory activity (Table 3).
For the reference sample in a UV cuvette 10 μL of the test sample (100 μM diluted in DMSO), 200 μL LOX solution (diluted in NaCl 0.9%), 100 μL LA (diluted in Tris buffer) and Tris buffer solution (pH 9) were added to a final volume of 1 mL. Respectively for the measurement sample, also in a UV cuvette 10 μL of test sample, 200 μL LOX solution, and Tris buffer solution (pH 9) were added to a final volume of 1mL. Standard and blank samples were prepared in the same way using DMSO (solvent) instead of the tested coumarin analogues.

For another data set, the system named is HaCaT cells. The data set can be described thus: MTT cell viability assay, HaCaT. The note with it: 100 μM. It counts as cell-based, human. The essentials:
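HaCaT cells seeded, grown 24 h (37 °C, 5% CO2), then exposed 24 h to each compound at 100 μM in DMEM; MTT added for 4 h, formazan dissolved in DMSO, OD read at 540 nm (reference 720 nm). Triplicates versus untreated cells, no-cell blank and 100 μM silibinin as cell-killing standard.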
Background: Formazan colour is commonly taken as a measure of viable cells.

Usually inhibition stands for the drop in the measured response relative to a control, in per cent. For the compound `CC(=O)Oc1cccc2oc(=O)c(-c3ccccc3Cl)c(C)c12` [Compound 3a, 5-acetyloxy-3-(2-chlorophenyl)-4-methyl-chromen-2-one], on soybean LOX, the “Soybean LOX % inhibition (100 μΜ)” value is “inactive” and the inhibition at 100 µM was found to be 17%. The IC50 is the concentration needed to halve the response being measured. Low values mean greater potency in that assay, high ones weaker potency in that assay. Turning to `CC(=O)Oc1cccc2oc(=O)c(-c3cccc(Cl)c3)c(C)c12` [Compound 3b, 5-acetyloxy-3-(3-chlorophenyl)-4-methyl-chromen-2-one], the IC50 against soybean LOX worked out at 31.6 µM. As to `CC(=O)Oc1cccc2oc(=O)c(-c3ccc(Cl)cc3)c(C)c12` [Compound 3c, 5-acetyloxy-3-(4-chlorophenyl)-4-methyl-chromen-2-one], the “Soybean LOX % inhibition (100 μΜ)” value on soybean LOX is recorded as “no”.

As to `CC(=O)Oc1cccc2oc(=O)c(-c3ccccc3F)c(C)c12` [Compound 3d, 5-acetyloxy-3-(2-fluorophenyl)-4-methyl-chromen-2-one], at soybean LOX, the “Soybean LOX % inhibition (100 μΜ)” value is “inactive” and the inhibition at 100 µM worked out at 11.6%. `CC(=O)Oc1cccc2oc(=O)c(-c3cccc(F)c3)c(C)c12` [Compound 3e, 5-acetyloxy-3-(3-fluorophenyl)-4-methyl-chromen-2-one] showed an IC50 against soybean LOX of 11.4 µM.

As to `CC(=O)Oc1cccc2oc(=O)c(-c3ccc(F)cc3)c(C)c12` [Compound 3f, 5-acetyloxy-3-(4-fluorophenyl)-4-methyl-chromen-2-one], at soybean LOX, the “Soybean LOX % inhibition (100 μΜ)” value was “inactive” and the inhibition at 100 µM is 20.1%. Regarding `CC(=O)Oc1cccc2oc(=O)c(-c3cccc(Br)c3)c(C)c12` [Compound 3g, 5-acetyloxy-3-(3-bromophenyl)-4-methyl-chromen-2-one], the midpoint of inhibition against soybean LOX, the IC50, lay at 40.5 µM.

Turning to `CC(=O)Oc1ccc(-c2c(C)c3ccccc3oc2=O)cc1` [Compound 3h, 3-(4-acetyloxyphenyl)-4-methyl-chromen-2-one], the inhibition at 100 µM at soybean LOX came to 33.8%.

As to `CC(=O)Oc1ccc(-c2c(C)c3cc(Br)ccc3oc2=O)cc1` [Compound 3i, 3-(4-acetyloxyphenyl)-6-bromo-4-methyl-chromen-2-one], the inhibition at 100 µM on soybean LOX stood at 46.5%. In turn, `CC(=O)Oc1ccc(-c2c(C)c3cc(Cl)ccc3oc2=O)cc1` [Compound 3j, 3-(4-acetyloxyphenyl)-6-chloro-4-methyl-chromen-2-one] came in with an IC50 against soybean LOX of 49.5 µM. This lies in the double-digit micromolar range.

The compound `CC(=O)Oc1ccc(-c2c(C)c3cc(Br)cc(Br)c3oc2=O)cc1` [Compound 3k, 3-(4-acetyloxyphenyl)-6,8-dibromo-4-methyl-chromen-2-one] had an IC50 at soybean LOX of 8.7 µM. Regarding `CC(=O)Oc1ccc(-c2c(C)c3ccccc3oc2=O)cc1OC(C)=O` [Compound 3l, 3-(4,5-diacetyloxyphenyl)-4-methyl-chromen-2-one], the inhibition at 100 µM at soybean LOX stood at 31.4%.

On to `CC(=O)Oc1ccc(-c2c(C)c3cc(Br)ccc3oc2=O)cc1OC(C)=O` [Compound 3m, 3-(4,5-diacetyloxyphenyl)-6-bromo-4-methyl-chromen-2-one], for which, at soybean LOX, the inhibition at 100 µM worked out at 48%. Regarding `CC(=O)Oc1ccc(-c2c(C)c3cc(Cl)ccc3oc2=O)cc1OC(C)=O` [Compound 3n, 3-(4,5-diacetyloxyphenyl)-6-chloro-4-methyl-chromen-2-one], on soybean LOX, it took 56.5 µM to reach half-maximal inhibition (IC50). Consider `CC(=O)Oc1ccc(-c2c(C)c3cc(Br)cc(Br)c3oc2=O)cc1OC(C)=O` [Compound 3o, 3-(4,5-diacetyloxyphenyl)-6,8-dibromo-4-methyl-chromen-2-one], for which the “Soybean LOX % inhibition (100 μΜ)” value on soybean LOX is reported as “no”.

`Cc1c(-c2ccccc2Cl)c(=O)oc2cccc(O)c12` [Compound 4a, 3-(2-chlorophenyl)-5-hydroxy-4-methyl-chromen-2-one] came in with an IC50 at soybean LOX of 10 µM. Turning to `Cc1c(-c2cccc(Cl)c2)c(=O)oc2cccc(O)c12` [Compound 4b, 3-(3-chlorophenyl)-5-hydroxy-4-methyl-chromen-2-one], the inhibition at 100 µM on soybean LOX was 47.3%. As for `Cc1c(-c2ccc(Cl)cc2)c(=O)oc2cccc(O)c12` [Compound 4c, 3-(4-chlorophenyl)-5-hydroxy-4-methyl-chromen-2-one], at soybean LOX, the inhibition at 100 µM was found to be 0.9%. Moreover, the “cytotoxicity in HaCaT” value in the data set on HaCaT cells came to 63.7%. `Cc1c(-c2ccccc2F)c(=O)oc2cccc(O)c12` [Compound 4d, 3-(2-fluorophenyl)-5-hydroxy-4-methyl-chromen-2-one] registered an IC50 against soybean LOX of 31.6 µM. The same measure, in the same setting: the same measure for `Cc1c(-c2cccc(F)c2)c(=O)oc2cccc(O)c12` [Compound 4e, 3-(3-fluorophenyl)-5-hydroxy-4-methyl-chromen-2-one]: 4.1 µM. On to `Cc1c(-c2ccc(F)cc2)c(=O)oc2cccc(O)c12` [Compound 4f, 3-(4-fluorophenyl)-5-hydroxy-4-methyl-chromen-2-one], for which the inhibition at 100 µM on soybean LOX came out at 39.2%. On the same count and under the same terms, in the case of `Cc1c(-c2ccc(O)cc2)c(=O)oc2ccccc12` [Compound 4h, 3-(4-hydroxyphenyl)-4-methyl-chromen-2-one] it was 27.2%; in that of `Cc1c(-c2ccc(O)cc2)c(=O)oc2ccc(Br)cc12` [Compound 4i, 6-bromo-3-(4-hydroxyphenyl)-4-methyl-chromen-2-one], 19.3%. Take `Cc1c(-c2ccc(O)cc2)c(=O)oc2ccc(Cl)cc12` [Compound 4j, 6-chloro-3-(4-hydroxyphenyl)-4-methyl-chromen-2-one]: on soybean LOX, the inhibition at 100 µM was 35%. In addition, the “cytotoxicity in HaCaT” value in the data set with HaCaT cells came out at 73%. In the case of `Cc1c(-c2ccc(O)cc2)c(=O)oc2c(Br)cc(Br)cc12` [Compound 4k, 6,8-dibromo-3-(4-hydroxyphenyl)-4-methyl-chromen-2-one], at soybean LOX, the “Soybean LOX % inhibition (100 μΜ)” value is “inactive” and the inhibition at 100 µM was 33.4%.
